For assay [1], the target named is G-protein coupled receptor 35 (Homo sapiens, UniProt Q9HC97). The experiment in a line: GPR35 antagonists blocking zaprinast-driven arrestin recruitment, primary screen, imaging, U2OS, beta-arrestin-GFP, zaprinast agonist (AID 2058).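 Note: antagonist potency meaning inhibition of agonist-induced arrestin redistribution.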 In kind it is functional.
For assay [2], the target named is 26S proteasome non-ATPase regulatory subunit 14 (Homo sapiens, UniProt O00487). Kind of assay: inhibition of proteasome subunit RPN11 – biochemical, fluorescence polarization, uHTS hits, confirmation (AID 602368). In kind it is functional. Background: In fluorescence polarisation assays a small probe gives low polarisation when free and higher when bound to something large.

Assay [3] has as its target 72 kDa type IV collagenase (Homo sapiens, UniProt P08253). The experiment in a line: Dose Response validation of uHTS RPN11 inhibitor hits using a MMP-2 Fluorescence assay. In kind it is functional.
Another assay deals with Prothrombin (Bos taurus, UniProt P00735). Kind of assay: thrombin inhibition, dose response, biochemical, fluorescence polarization, uHTS hits (AID 602369). Type of assay: functional.
Assay [4] has as its target T1, Histone-lysine N-methyltransferase NSD2 (Homo sapiens, UniProt O96028).
T1 sequence (O96028 whole entry): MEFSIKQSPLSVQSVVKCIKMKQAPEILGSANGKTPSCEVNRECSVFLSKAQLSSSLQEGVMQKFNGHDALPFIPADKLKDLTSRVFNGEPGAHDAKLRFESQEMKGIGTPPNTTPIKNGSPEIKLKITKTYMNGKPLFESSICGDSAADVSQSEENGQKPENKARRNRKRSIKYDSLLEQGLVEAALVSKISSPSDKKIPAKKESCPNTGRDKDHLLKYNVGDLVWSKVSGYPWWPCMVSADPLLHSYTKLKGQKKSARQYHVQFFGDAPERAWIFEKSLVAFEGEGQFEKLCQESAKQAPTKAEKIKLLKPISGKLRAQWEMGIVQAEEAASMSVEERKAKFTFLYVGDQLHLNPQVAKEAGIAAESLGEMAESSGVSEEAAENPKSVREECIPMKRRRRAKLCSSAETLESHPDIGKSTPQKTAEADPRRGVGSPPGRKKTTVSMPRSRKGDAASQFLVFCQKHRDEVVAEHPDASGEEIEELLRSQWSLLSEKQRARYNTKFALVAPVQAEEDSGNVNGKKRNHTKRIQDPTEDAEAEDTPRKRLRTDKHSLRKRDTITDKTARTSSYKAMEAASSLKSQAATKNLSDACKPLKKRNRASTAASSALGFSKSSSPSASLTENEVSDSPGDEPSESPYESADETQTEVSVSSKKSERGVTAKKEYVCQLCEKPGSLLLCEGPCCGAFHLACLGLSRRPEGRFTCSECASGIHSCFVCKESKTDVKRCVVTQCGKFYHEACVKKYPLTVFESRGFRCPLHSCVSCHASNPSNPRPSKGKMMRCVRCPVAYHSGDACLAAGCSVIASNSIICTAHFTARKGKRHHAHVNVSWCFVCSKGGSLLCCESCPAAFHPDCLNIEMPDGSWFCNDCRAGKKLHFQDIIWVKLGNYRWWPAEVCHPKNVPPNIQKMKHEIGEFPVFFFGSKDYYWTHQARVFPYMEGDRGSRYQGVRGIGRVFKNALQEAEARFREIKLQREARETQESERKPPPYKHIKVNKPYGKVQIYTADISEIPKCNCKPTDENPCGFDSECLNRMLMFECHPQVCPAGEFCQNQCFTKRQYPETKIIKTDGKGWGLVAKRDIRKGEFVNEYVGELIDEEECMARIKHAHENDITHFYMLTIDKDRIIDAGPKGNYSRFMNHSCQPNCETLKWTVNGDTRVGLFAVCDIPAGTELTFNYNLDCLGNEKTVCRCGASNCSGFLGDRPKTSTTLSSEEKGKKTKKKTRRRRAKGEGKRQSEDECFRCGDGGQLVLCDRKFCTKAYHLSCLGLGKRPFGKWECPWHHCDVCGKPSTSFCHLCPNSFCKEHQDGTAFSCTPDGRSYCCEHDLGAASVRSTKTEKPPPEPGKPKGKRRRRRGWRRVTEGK
In kind it is biochemical.

The target of another assay is Bcl-2-like protein 10 (Homo sapiens, UniProt Q9HD36). Kind of assay: displacers of TR3 peptide from Bcl-B, primary screen, selectivity assay for Bfl-1 inhibitor project, biochemical, fluorescence polarization, FITC-TR3 peptide (AID 748).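 Note: fluorescence polarization from a fluorescein-labelled TR3 peptide binding purified Bcl-B.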
The target of assay [5] is T2, Short transient receptor potential channel 4 (Mus musculus, UniProt Q9QUQ5).
T2 sequence (Q9QUQ5 whole entry): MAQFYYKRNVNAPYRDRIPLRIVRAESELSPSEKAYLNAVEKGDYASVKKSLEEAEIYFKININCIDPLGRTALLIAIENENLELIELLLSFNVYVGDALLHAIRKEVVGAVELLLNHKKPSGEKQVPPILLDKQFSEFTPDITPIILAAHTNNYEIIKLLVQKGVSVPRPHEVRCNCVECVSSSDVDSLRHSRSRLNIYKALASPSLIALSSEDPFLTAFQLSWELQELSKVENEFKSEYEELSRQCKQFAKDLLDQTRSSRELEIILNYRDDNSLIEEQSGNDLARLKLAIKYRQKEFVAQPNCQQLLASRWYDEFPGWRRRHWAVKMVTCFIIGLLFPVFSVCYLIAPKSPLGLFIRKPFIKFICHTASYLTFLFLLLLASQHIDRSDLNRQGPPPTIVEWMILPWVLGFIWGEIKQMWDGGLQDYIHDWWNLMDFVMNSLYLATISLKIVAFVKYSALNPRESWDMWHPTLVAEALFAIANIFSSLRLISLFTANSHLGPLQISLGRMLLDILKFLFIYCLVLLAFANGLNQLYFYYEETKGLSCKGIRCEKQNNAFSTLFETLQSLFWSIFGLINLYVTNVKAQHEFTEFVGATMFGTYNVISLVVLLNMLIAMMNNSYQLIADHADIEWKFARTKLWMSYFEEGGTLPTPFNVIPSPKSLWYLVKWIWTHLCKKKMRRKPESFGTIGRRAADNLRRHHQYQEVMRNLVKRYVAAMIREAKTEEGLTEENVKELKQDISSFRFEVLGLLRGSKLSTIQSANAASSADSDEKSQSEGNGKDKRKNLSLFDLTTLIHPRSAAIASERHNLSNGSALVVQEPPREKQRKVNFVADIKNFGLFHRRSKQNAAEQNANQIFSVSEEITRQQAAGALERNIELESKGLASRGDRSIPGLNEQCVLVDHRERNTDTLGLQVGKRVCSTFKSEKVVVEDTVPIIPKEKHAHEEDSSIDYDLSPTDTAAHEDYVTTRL
Kind of assay: mouse TRPC4 channel inhibitors, dose response, cell-based, HEK293 TRPC4/mu-opioid, Fluo-4 calcium (AID 434942).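 Note: potency of inhibitors blocking the TRPC4 calcium response.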 In kind it is functional.

Assay [6] addresses T3, RNA-binding protein pos-1 (Caenorhabditis elegans, UniProt G5EF15).
T3 sequence (G5EF15 whole entry): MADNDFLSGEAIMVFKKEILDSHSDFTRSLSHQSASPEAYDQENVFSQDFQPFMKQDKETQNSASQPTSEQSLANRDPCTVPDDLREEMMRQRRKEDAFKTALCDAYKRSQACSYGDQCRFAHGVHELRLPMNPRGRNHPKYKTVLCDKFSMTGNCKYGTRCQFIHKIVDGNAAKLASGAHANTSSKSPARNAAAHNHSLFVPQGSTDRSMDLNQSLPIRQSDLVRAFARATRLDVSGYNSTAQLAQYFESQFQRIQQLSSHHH
Kind of assay: inhibitors of POS-1/mex-3 RNA binding, dose response, biochemical, fluorescence polarization (AID 1964).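 Note: purified POS-1 fused to maltose binding protein made in E. coli; potency of compounds blocking POS-1 binding to fluorescent RNA.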

Assay [7] addresses T4, Zinc finger protein mex-5 (Caenorhabditis elegans, UniProt Q9XUB2).
T4 sequence (Q9XUB2 whole entry): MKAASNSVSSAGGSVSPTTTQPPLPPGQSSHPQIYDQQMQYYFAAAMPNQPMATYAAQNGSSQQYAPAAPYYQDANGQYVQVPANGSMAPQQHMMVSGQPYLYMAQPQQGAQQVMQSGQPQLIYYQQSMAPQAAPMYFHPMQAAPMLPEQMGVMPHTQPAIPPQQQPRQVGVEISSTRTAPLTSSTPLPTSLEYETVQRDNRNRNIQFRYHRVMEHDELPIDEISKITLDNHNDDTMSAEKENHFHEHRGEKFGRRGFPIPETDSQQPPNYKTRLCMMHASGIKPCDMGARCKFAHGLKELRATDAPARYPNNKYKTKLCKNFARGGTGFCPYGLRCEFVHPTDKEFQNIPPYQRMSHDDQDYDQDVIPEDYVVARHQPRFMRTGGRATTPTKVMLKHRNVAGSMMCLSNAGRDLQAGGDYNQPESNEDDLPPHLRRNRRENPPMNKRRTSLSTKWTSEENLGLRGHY
The experiment in a line: MEX-5/TCR-2 RNA interaction inhibitors, dose response, biochemical, C. elegans, fluorescence polarization (AID 1960).

Another assay concerns the target T5, Estrogen receptor (Homo sapiens, UniProt P03372).
T5 sequence (P03372 whole entry): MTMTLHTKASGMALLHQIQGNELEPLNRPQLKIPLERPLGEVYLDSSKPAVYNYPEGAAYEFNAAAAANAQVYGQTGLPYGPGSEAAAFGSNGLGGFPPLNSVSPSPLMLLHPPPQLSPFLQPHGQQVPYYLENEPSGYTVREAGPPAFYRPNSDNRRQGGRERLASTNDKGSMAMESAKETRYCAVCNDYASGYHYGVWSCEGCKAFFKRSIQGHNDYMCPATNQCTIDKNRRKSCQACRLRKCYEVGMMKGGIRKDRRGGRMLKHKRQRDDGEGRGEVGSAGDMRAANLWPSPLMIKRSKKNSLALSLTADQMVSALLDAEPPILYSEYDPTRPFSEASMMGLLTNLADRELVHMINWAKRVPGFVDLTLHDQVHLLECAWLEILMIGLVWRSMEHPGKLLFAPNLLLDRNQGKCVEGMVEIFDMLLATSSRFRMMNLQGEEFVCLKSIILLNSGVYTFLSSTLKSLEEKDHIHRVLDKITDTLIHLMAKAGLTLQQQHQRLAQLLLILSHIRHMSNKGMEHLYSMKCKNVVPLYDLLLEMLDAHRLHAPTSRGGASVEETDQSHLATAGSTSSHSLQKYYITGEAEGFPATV

In a further assay the target is Estrogen receptor beta (Homo sapiens, UniProt Q92731). The experiment in a line: ERβ–SRC-3 coactivator interaction inhibitors, confirmation, orthogonal assay, biochemical, ELISA, streptavidin-HRP readout (AID 1060). A general note: In an ELISA, binding on a coated surface is turned into a signal by an enzyme label.
A short description of assay [8]: Cytotoxicity screening for potential Inhibitors of Bacterial Capsule Biogenesis. [Related pubchem assays (depositor defined):AID488970]. In kind it is functional.
The target in assay [9] is Melanin-concentrating hormone receptor 1 (Homo sapiens, UniProt Q99705). The experiment in a line: Late-stage fluorescence-based counterscreen for antagonists of the G-protein coupled receptor 7 (GPR7): cell-based dose response assay to identify antagonists of the melanin-concentrating hormone receptor 1 (MCHR1). [Related pubchem assays (depositor defined):AID1861, AID1880, AID1952, AID2148, AID2251, AID2257, AID485339]. In kind it is functional.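 Note: stimulated with 30 nM MCH peptide agonist.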

Assay [10] concerns the target T6, Neuropeptides B/W receptor type 1 (Homo sapiens, UniProt P48145).
T6 sequence (P48145 whole entry): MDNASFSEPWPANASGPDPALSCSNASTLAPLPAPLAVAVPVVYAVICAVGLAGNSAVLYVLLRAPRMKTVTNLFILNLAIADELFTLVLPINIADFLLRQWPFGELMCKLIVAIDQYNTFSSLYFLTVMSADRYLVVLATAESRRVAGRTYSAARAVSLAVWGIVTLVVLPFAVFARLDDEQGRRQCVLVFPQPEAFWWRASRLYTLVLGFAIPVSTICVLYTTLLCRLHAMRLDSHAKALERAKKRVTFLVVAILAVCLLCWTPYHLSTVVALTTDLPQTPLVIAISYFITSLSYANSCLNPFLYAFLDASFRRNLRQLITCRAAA
Kind of assay: GPR7 antagonist potency, late-stage follow-up, cell-based, fluorescence, dose response (AID 463251). Type of assay: functional.

Assay [11] deals with Phosphoethanolamine/phosphocholine phosphatase (Homo sapiens, UniProt Q8TCT1). The experiment in a line: SAR assay for compounds that inhibit PHOSPHO1. [Related pubchem assays (depositor defined):AID1545, AID1565, AID1574].

The record followed here is ChEMBL document CHEMBL1201862, “PubChem BioAssay data set” (2004).

Usually IC50 stands for the midpoint of a concentration-inhibition curve. Usually AC50 stands for the concentration giving half of the maximal activity seen. As a reminder, the EC50 is the concentration that produces a half-maximal response. Broadly, the CC50 is the concentration that lowers cell viability or growth by half.

Activity calls are given as the source filed them. Bounds are passed on as bounds.

Chain of Phosphoethanolamine/phosphocholine phosphatase (Q8TCT1 whole entry): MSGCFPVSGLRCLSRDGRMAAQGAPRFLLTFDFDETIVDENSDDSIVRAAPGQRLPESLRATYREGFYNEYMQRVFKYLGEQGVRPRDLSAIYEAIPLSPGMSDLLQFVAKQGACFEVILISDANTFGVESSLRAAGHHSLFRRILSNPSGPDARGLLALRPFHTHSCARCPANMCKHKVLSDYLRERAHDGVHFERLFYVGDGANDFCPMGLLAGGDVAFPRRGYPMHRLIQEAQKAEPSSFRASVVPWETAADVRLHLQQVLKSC
Chain of Estrogen receptor beta (Q92731 whole entry): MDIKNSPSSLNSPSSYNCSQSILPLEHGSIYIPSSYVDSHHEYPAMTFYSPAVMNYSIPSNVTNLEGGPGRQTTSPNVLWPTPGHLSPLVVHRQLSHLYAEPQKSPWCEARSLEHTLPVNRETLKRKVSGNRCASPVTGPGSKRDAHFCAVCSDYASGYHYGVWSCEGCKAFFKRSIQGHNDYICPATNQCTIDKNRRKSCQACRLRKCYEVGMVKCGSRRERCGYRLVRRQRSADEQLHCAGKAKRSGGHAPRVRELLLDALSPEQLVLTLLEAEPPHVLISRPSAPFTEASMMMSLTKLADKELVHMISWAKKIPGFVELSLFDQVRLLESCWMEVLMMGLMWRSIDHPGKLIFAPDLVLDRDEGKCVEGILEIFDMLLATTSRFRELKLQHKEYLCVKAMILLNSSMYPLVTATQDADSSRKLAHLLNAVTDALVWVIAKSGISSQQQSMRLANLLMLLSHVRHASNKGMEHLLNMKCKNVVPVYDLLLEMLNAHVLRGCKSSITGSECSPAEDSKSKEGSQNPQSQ
Chain of 26S proteasome non-ATPase regulatory subunit 14 (O00487 whole entry): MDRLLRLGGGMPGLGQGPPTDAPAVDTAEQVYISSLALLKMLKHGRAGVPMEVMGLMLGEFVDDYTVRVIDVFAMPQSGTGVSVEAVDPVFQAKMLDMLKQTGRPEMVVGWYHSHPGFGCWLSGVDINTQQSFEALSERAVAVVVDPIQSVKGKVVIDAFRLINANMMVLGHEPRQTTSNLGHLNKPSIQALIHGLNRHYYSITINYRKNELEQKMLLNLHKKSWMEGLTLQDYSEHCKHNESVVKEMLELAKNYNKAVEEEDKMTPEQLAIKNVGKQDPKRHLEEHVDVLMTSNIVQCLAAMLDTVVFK
Chain of Melanin-concentrating hormone receptor 1 (Q99705 whole entry): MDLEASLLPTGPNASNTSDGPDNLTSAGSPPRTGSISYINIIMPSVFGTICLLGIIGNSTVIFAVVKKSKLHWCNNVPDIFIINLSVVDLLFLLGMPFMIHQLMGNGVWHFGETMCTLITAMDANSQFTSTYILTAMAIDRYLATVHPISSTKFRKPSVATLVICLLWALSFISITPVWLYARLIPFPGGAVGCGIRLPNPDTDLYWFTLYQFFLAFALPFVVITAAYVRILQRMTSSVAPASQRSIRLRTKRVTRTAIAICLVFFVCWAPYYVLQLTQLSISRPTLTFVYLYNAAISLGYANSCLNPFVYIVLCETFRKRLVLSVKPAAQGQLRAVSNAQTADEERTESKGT
Chain of 72 kDa type IV collagenase (P08253 whole entry): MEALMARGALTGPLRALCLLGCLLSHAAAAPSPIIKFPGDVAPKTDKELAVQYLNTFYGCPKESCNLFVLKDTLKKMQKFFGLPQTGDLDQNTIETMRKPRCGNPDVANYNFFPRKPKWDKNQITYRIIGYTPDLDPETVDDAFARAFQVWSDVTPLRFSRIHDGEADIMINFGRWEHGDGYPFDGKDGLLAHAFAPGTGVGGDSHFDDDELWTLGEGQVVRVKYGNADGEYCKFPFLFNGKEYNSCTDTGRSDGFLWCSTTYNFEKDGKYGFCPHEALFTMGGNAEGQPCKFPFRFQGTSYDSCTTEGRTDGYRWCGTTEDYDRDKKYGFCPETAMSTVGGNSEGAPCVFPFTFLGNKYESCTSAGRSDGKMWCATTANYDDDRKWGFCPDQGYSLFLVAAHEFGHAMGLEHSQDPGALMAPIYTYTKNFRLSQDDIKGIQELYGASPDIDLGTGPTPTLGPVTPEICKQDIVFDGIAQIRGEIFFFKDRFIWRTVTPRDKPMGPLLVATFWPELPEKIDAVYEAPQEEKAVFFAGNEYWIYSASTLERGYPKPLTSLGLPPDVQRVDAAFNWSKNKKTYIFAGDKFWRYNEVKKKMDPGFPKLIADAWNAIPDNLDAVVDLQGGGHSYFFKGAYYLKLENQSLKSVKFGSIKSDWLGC
Chain of G-protein coupled receptor 35 (Q9HC97 whole entry): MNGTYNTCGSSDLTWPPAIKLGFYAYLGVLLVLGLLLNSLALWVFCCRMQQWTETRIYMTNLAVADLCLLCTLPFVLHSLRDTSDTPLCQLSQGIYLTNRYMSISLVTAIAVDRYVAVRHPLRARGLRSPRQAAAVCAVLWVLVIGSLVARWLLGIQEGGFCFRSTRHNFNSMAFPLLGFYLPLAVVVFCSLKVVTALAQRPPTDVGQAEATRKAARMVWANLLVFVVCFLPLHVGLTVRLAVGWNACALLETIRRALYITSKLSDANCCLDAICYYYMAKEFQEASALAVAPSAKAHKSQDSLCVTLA
Chain of Bcl-2-like protein 10 (Q9HD36 whole entry): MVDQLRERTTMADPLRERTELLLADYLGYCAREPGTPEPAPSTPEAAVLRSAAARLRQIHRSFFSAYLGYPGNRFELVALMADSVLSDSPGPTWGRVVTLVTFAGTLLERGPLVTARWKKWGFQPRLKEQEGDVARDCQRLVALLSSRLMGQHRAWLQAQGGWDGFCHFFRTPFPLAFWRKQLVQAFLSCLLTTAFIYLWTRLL

As to `O=C(/C=C/c1ccco1)Nc1cccc(C(=O)Nc2ccccc2C(=O)O)c1`, the IC50 is < 0.5 µM (active) in [1], 23.1 µM (active) in assay [2], 97.4 µM (active) in assay [3] and 39.8 µM (active) at Prothrombin. Besides, in [4], the AC50 was 18.6 µM (active).

As for `COc1ccccc1NCCC(=O)OCC(=O)NCc1ccco1`, the IC50 on Bcl-2-like protein 10 is 69.1 µM (inactive).

Consider `CCOC(=O)C1(Cc2cccc(OC)c2)CCN(Cc2cccc(O)c2)CC1`, for which, in assay [5], the EC50 is 9.44 µM (active).

As to `CCC1=NN2C(=N)/C(=C\c3ccc(SCc4ccco4)o3)C(=O)N=C2S1`, the figures for the EC50 in assay [6] and in assay [7] were 4.36 µM (active) and 6.85 µM (active), respectively. For the same compound, the IC50 at Estrogen receptor is 21 µM (active); at Estrogen receptor beta, > 50 µM (not active). For the same compound, in assay [8], the CC50 was > 100 µM (active). Moreover, in assay [4], the AC50 is 16.2 µM (active).

For `O=c1c(Oc2ccc(O)cc2)c(Cl)cnn1-c1ccccc1`, the IC50 in assay [9] is 11.1 µM (inactive); in assay [10], 2.8 µM (active).

`c1ccc(CNc2nc(-c3ccccc3)[n+](-c3ccccc3)s2)cc1`: the IC50 in assay [11] was 2.59 µM (inactive).
